The source made the active and inactive calls.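 Rule for the calls: active = IC50 at or below about 50119 nM, measured in restricted growth medium; inactive = the rest.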
System: HepG2 viability, ATP luminescence, 48 h
Test: HepG2 cell cytotoxicity, dose response, cytotoxicity control (AID 2060596)

Structure (SMILES): O=C(CCCc1c[nH]c2ccccc12)N1CCN(c2ccc(N3CCOCC3)nn2)CC1
- IC50: > 100 µM (inactive)

Structure (SMILES): Cc1cc(Cl)ccc1OCC(=O)N1CCc2c(cnc(C)c2CNC(=O)c2ccc(=O)[nH]n2)C1
- IC50: > 100 µM (inactive)

Structure (SMILES): Cc1cc(-c2cnc(N3CCn4c(nnc4C4CC4)C3)nc2-c2ccncc2)on1
- IC50: > 100 µM (inactive)

Structure (SMILES): O=C(NCCCN1CCc2ccccc21)c1ccc2c(=O)n(Cc3ccccn3)cnc2c1
- IC50: > 100 µM (inactive)

Structure (SMILES): O=C(CCn1nnc2cc(S(=O)(=O)N3CCCC3)ccc21)N1CCN(c2ccccn2)CC1
- IC50: > 100 µM (inactive)

Structure (SMILES): Cc1cccc(-c2nn(Cc3ccc(C(=O)NCCCO)cc3)c(=O)cc2N2CCCC(CO)C2)c1 (stereo not drawn)
- IC50: > 100 µM (inactive)

Structure (SMILES): NC(=O)CC1CCN(C(=O)c2sc3sccc3c2Cl)CC1
- IC50: > 100 µM (inactive)

Structure (SMILES): COc1ccc(N2CCN(C(=O)c3csc(Nc4ccccc4S(C)(=O)=O)n3)CC2)nc1
- IC50: > 100 µM (inactive)

Structure (SMILES): CCN(C(=O)C=Cc1ccc(S(=O)(=O)N2CCc3ccccc32)cc1)C1CCS(=O)(=O)C1 (stereo not drawn)
- IC50: > 100 µM (inactive)

Structure (SMILES): O=C1CCCN1c1ccc(S(=O)(=O)N2CCN(S(=O)(=O)c3ccccc3)CC2)cc1
- IC50: > 100 µM (inactive)

Structure (SMILES): O=C(Nc1nnc(-c2ccccc2)s1)N1CCCN(c2ncccn2)CC1
- IC50: > 100 µM (inactive)

Structure (SMILES): N#Cc1cccc(NC(=O)CNc2ccccc2C(=O)NC2CC2)c1
- IC50: > 100 µM (inactive)

Structure (SMILES): CCN(CC)c1ccc(C(=O)COc2ccc3c(c2)CCNCC3)cc1
- IC50: 31.6 µM

Structure (SMILES): O=C(CCN=C1NS(=O)(=O)c2ccccc21)Nc1ccc(S(=O)(=O)N2CCCC2)cc1
- IC50: > 100 µM (inactive)

Structure (SMILES): CCCOc1cncc(S(=O)(=O)c2ccc3c(c2)CCN(C2CCC2)CC3)c1
- IC50: 50.1 µM

Structure (SMILES): O=C(/C=C/c1n[nH]c2ccccc12)Nc1ccc(C(=O)NCCN2CCOCC2)cc1
- IC50: > 100 µM (inactive)

Structure (SMILES): Cc1ccc2nc(CCNC(=O)CCS(=O)(=O)c3ccc4c(c3)CC(=O)N4C)[nH]c2c1
- IC50: > 100 µM (inactive)

Structure (SMILES): N#Cc1c(N)n[nH]c1CCCNC(=O)c1ccc(Cl)c(S(=O)(=O)N2CCCC2)c1
- IC50: > 100 µM (inactive)

Structure (SMILES): O=C(COc1ccc(Br)cc1F)N1CCN(c2cnccn2)CC1
- IC50: > 100 µM (inactive)

Structure (SMILES): Cn1cccc1C1CCCN1CC(=O)Nc1ccc(S(=O)(=O)N2CCOCC2)cc1 (stereo not drawn)
- IC50: > 100 µM (inactive)

Structure (SMILES): O=C(Nc1ccc(N2CCCC2)nc1)N1CCN(c2cnccn2)CC1
- IC50: > 100 µM (inactive)

Structure (SMILES): COc1ccc(-c2ccc(CNC(=O)c3cc(C(=O)NC(C)C)ccc3Cl)cc2)cn1
- IC50: > 100 µM (inactive)

Structure (SMILES): O=C(CCCc1ncc(-c2ccccc2)o1)N1CCOC2CCCC21 (stereo not drawn)
- IC50: > 100 µM (inactive)

Structure (SMILES): O=C1CSc2ccc(C(=O)Nc3ccc(-c4nnc5n4CCCCC5)cc3)cc2N1
- IC50: > 100 µM (inactive)

Structure (SMILES): COc1ccc2oc(C(=O)NC3CCC(Oc4ncccn4)CC3)cc2c1 (stereo not drawn)
- IC50: > 100 µM (inactive)

Structure (SMILES): COc1ccc(C(=O)N2CCN(c3ccc(-n4cccn4)nn3)CC2)cc1OC
- IC50: > 100 µM (inactive)

Structure (SMILES): O=C(Nc1cccnc1)C1CCN(c2ccc(-c3ccco3)nn2)CC1
- IC50: > 100 µM (inactive)

Structure (SMILES): O=C(/C=C/c1n[nH]c2ccccc12)N1CCN(c2cnccn2)CC1
- IC50: > 100 µM (inactive)

Structure (SMILES): O=C(c1cc2ccccc2[nH]1)N1CCC2(CC(Nc3ccncn3)C2)C1 (stereo not drawn)
- IC50: 63.1 µM

Structure (SMILES): COc1ccc(NC(=O)c2ccc3c(=O)n(Cc4ccccn4)cnc3c2)cc1N1CCN(C)CC1
- IC50: > 100 µM (inactive)

Structure (SMILES): CC(C)Oc1ccc(-c2nnc(Oc3cccc4c3CCN(CCC(N)=O)CC4)s2)cc1C#N
- IC50: 20 µM

Structure (SMILES): CN(C(=O)C[C@@H]1CCN(C(=O)C2CC2)C1)c1ccc(-c2ccc(C#N)cc2)cc1
- IC50: > 100 µM (inactive)

Structure (SMILES): Cc1nn(C2CCS(=O)(=O)C2)c(C)c1CN(C)C(=O)CN1C(=O)NC2(CCCCC2C)C1=O (stereo not drawn)
- IC50: 79.4 µM

— PubChem BioAssay AID2060596 (Global Health Medicines R&D, GSK, 2025)
